Experimental data from PubChem BioAssay (NCI).
≈ marks a conversion by molar mass, not a printed value.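 Cultured in 96-well plates, cells were exposed to test compound for 48 hours across five concentrations. The concentration for 50% growth inhibition is given as GI50. TGI: total growth inhibition.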

Assays:
Test in all cases: inhibition of tumour cell growth, NCI panel, 48 h
UO-31 renal = tested on: UO-31 renal
SNB-75 CNS = tested on: SNB-75 CNS
HOP-62 NSCLC = tested on: HOP-62 NSCLC
HL-60(TB) leukemia = tested on: HL-60(TB) leukemia
RXF 393 renal = tested on: RXF 393 renal
HCT-116 colon = tested on: HCT-116 colon
HOP-92 NSCLC = tested on: HOP-92 NSCLC
NCI-H226 lung = tested on: NCI-H226 lung
EKVX NSCLC = tested on: EKVX NSCLC
IGROV1 ovarian = tested on: IGROV1 ovarian
A498 renal = tested on: A498 renal
MDA-MB-231 breast = tested on: MDA-MB-231 breast
SN12C renal = tested on: SN12C renal
SR leukemia = tested on: SR leukemia
HS 578T breast = tested on: HS 578T breast
RPMI-8226 leukemia = tested on: RPMI-8226 leukemia
T-47D breast = tested on: T-47D breast
OVCAR-3 ovarian = tested on: OVCAR-3 ovarian
SNB-19 CNS = tested on: SNB-19 CNS
SF-295 CNS = tested on: SF-295 CNS
PC-3 prostate = tested on: PC-3 prostate
KM12 colon = tested on: KM12 colon
SK-MEL-28 melanoma = tested on: SK-MEL-28 melanoma
SK-MEL-5 melanoma = tested on: SK-MEL-5 melanoma
SK-OV-3 ovarian = tested on: SK-OV-3 ovarian
K-562 leukemia = tested on: K-562 leukemia
OVCAR-8 ovarian = tested on: OVCAR-8 ovarian
M14 melanoma = tested on: M14 melanoma
SF-539 CNS = tested on: SF-539 CNS
DU-145 prostate = tested on: DU-145 prostate
LOX IMVI melanoma = tested on: LOX IMVI melanoma
ACHN renal = tested on: ACHN renal
A549 NSCLC = tested on: A549 NSCLC
SW-620 colon = tested on: SW-620 colon
NCI-H460 lung = tested on: NCI-H460 lung
786-0 renal = tested on: 786-0 renal
MDA-MB-435 = tested on: MDA-MB-435
SK-MEL-2 melanoma = tested on: SK-MEL-2 melanoma
NCI-H522 lung = tested on: NCI-H522 lung
SF-268 CNS = tested on: SF-268 CNS
CCRF-CEM leukemia = tested on: CCRF-CEM leukemia
NCI-H23 lung = tested on: NCI-H23 lung
U251 CNS = tested on: U251 CNS
CAKI-1 renal = tested on: CAKI-1 renal
BT-549 breast = tested on: BT-549 breast
UACC-257 melanoma = tested on: UACC-257 melanoma
OVCAR-5 ovarian = tested on: OVCAR-5 ovarian
NCI/ADR-RES ovarian = tested on: NCI/ADR-RES ovarian
HCT-15 colon = tested on: HCT-15 colon
OVCAR-4 ovarian = tested on: OVCAR-4 ovarian
HT29 colon = tested on: HT29 colon
MOLT-4 leukemia = tested on: MOLT-4 leukemia
UACC-62 melanoma = tested on: UACC-62 melanoma

Nc1nccc2c([N+](=O)[O-])cccc12
GI50 (UO-31 renal): 53.4 µg/mL
GI50 (SNB-75 CNS): 55.3 µg/mL
GI50 (HOP-62 NSCLC): 61.5 µg/mL
GI50 (HL-60(TB) leukemia): 78.3 µg/mL
GI50 (RXF 393 renal): 87.4 µg/mL
GI50 (HCT-116 colon): 84.3 µg/mL
GI50 (HOP-92 NSCLC): 21.4 µg/mL
GI50 (NCI-H226 lung): 87.4 µg/mL
GI50 (EKVX NSCLC): 5.93 µg/mL
TGI (EKVX NSCLC): 48.8 µg/mL
GI50 (IGROV1 ovarian): 86.3 µg/mL
GI50 (A498 renal): 31.7 µg/mL
GI50 (MDA-MB-231 breast): 92 µg/mL
GI50 (SN12C renal): 92.9 µg/mL
GI50 (SR leukemia): 25.7 µg/mL (≈ 136 µM)
GI50 (HS 578T breast): 52 µg/mL (≈ 275 µM)
GI50 (RPMI-8226 leukemia): 40.4 µg/mL
GI50 (T-47D breast): 77.1 µg/mL (≈ 408 µM)

Nc1ccccc1C#Cc1ccccc1C#Cc1cccs1
GI50 (OVCAR-3 ovarian): 13.1 µM
TGI (OVCAR-3 ovarian): 26.4 µM
GI50 (UO-31 renal): 19.1 µM
TGI (UO-31 renal): 47.3 µM
GI50 (SNB-19 CNS): 29.9 µM
TGI (SNB-19 CNS): > 100 µM
GI50 (SF-295 CNS): 16.1 µM
TGI (SF-295 CNS): 37.3 µM
GI50 (SNB-75 CNS): 82.7 µM
TGI (SNB-75 CNS): > 100 µM
GI50 (PC-3 prostate): 13.8 µM
TGI (PC-3 prostate): 33 µM
GI50 (HOP-62 NSCLC): 15.1 µM
TGI (HOP-62 NSCLC): 29.3 µM
GI50 (HL-60(TB) leukemia): 11 µM
TGI (HL-60(TB) leukemia): > 100 µM
GI50 (KM12 colon): 10.3 µM
TGI (KM12 colon): 27.7 µM
GI50 (RXF 393 renal): 18.2 µM
TGI (RXF 393 renal): > 100 µM
GI50 (HCT-116 colon): 12.8 µM
TGI (HCT-116 colon): 25.4 µM
GI50 (SK-MEL-28 melanoma): 15.7 µM
TGI (SK-MEL-28 melanoma): 41 µM
GI50 (SK-MEL-5 melanoma): 7.59 µM
TGI (SK-MEL-5 melanoma): 22.3 µM
GI50 (SK-OV-3 ovarian): 32.7 µM
TGI (SK-OV-3 ovarian): > 100 µM
GI50 (K-562 leukemia): 15.5 µM
TGI (K-562 leukemia): 40.7 µM
GI50 (HOP-92 NSCLC): 5.87 µM
TGI (HOP-92 NSCLC): 22.2 µM
GI50 (NCI-H226 lung): 17.7 µM
TGI (NCI-H226 lung): 43.3 µM
GI50 (EKVX NSCLC): 18 µM
TGI (EKVX NSCLC): 48.5 µM
GI50 (OVCAR-8 ovarian): 42.7 µM
TGI (OVCAR-8 ovarian): > 100 µM
GI50 (IGROV1 ovarian): 18.4 µM
TGI (IGROV1 ovarian): 90.8 µM
GI50 (A498 renal): 15.1 µM
TGI (A498 renal): 29.5 µM
GI50 (M14 melanoma): 17.4 µM
TGI (M14 melanoma): 34.1 µM
GI50 (SF-539 CNS): 16.1 µM
TGI (SF-539 CNS): 32.9 µM
GI50 (DU-145 prostate): 20.6 µM
TGI (DU-145 prostate): 48 µM
GI50 (LOX IMVI melanoma): 14 µM
TGI (LOX IMVI melanoma): 27.5 µM
GI50 (ACHN renal): 18.7 µM
TGI (ACHN renal): 39.4 µM
GI50 (A549 NSCLC): 16.9 µM
TGI (A549 NSCLC): > 100 µM
GI50 (SW-620 colon): 18 µM
TGI (SW-620 colon): 41.1 µM
GI50 (NCI-H460 lung): 37.3 µM
TGI (NCI-H460 lung): > 100 µM
GI50 (MDA-MB-231 breast): 11.8 µM
TGI (MDA-MB-231 breast): 28.2 µM
GI50 (786-0 renal): 16.3 µM
TGI (786-0 renal): 31 µM
GI50 (MDA-MB-435): 4.03 µM
TGI (MDA-MB-435): 14.3 µM
GI50 (SK-MEL-2 melanoma): 30.2 µM
TGI (SK-MEL-2 melanoma): 73.5 µM
GI50 (NCI-H522 lung): 18.4 µM
TGI (NCI-H522 lung): 49.1 µM
GI50 (SF-268 CNS): 20.4 µM
TGI (SF-268 CNS): 42.8 µM
GI50 (CCRF-CEM leukemia): 19.9 µM
TGI (CCRF-CEM leukemia): 70.1 µM
GI50 (SN12C renal): 14.5 µM
TGI (SN12C renal): 29.1 µM
GI50 (NCI-H23 lung): 17.2 µM
TGI (NCI-H23 lung): 34.1 µM
GI50 (U251 CNS): 13.6 µM
TGI (U251 CNS): 27.3 µM
GI50 (RPMI-8226 leukemia): 14.1 µM
TGI (RPMI-8226 leukemia): 40.6 µM
GI50 (CAKI-1 renal): 11 µM
TGI (CAKI-1 renal): 25.1 µM
GI50 (BT-549 breast): 15.9 µM
TGI (BT-549 breast): 32.1 µM
GI50 (UACC-257 melanoma): 18.1 µM
TGI (UACC-257 melanoma): 53.2 µM
GI50 (OVCAR-5 ovarian): 14.5 µM
TGI (OVCAR-5 ovarian): 30 µM
GI50 (NCI/ADR-RES ovarian): 16 µM
TGI (NCI/ADR-RES ovarian): 30.7 µM
GI50 (HCT-15 colon): 13.1 µM
TGI (HCT-15 colon): 33.5 µM
GI50 (OVCAR-4 ovarian): 31 µM
TGI (OVCAR-4 ovarian): > 100 µM
GI50 (HT29 colon): 19.4 µM
TGI (HT29 colon): 49 µM
GI50 (MOLT-4 leukemia): 32.4 µM
TGI (MOLT-4 leukemia): > 100 µM
GI50 (UACC-62 melanoma): 13.8 µM
TGI (UACC-62 melanoma): 28.6 µM
